In ChEMBL document CHEMBL4834497, “Spirocyclic Thiohydantoin Antagonists of F877L and Wild-Type Androgen Receptor for Castration-Resistant Prostate Cancer” (ACS Med Chem Lett, 2021):

Key:
[1] = Half life in CD-1 mouse at 2 mg/kg, iv; type: ADME, organism-based; conditions: in vivo
[2] = Metabolic stability in human liver microsomes assessed as half life; type: ADME, Microsome
[3] = Oral bioavailability in CD-1 mouse at 10 mg/kg; type: ADME, organism-based; conditions: in vivo
[4] = Clearance in CD-1 mouse at 2 mg/kg, iv; type: ADME, organism-based; conditions: in vivo
[5] = Cmax in CD-1 mouse at 10 mg/kg, po; type: ADME, organism-based; parameters: route oral, dose 10 mg/kg; conditions: in vivo
[6] = AUC (0 to infinity) in CD-1 mouse at 10 mg/kg, po; type: ADME, organism-based; parameters: time infinity, route oral, dose 10 mg/kg; conditions: in vivo
[7] = Volume of distribution in steady state in CD-1 mouse at 2 mg/kg, iv; type: ADME, organism-based; conditions: in vivo, read-out: Vdss
[8] = Metabolic stability in dog liver microsomes assessed as unchanged parent compound remaining at 10 uM incubated for 60 mins in presence of [13C2,15N-glycine]GSH and NADPH by LC-MS/MS analysis; type: ADME, Canis lupus familiaris, Microsome; conditions: read-out: Stabilty
[9] = Metabolic stability in dog liver microsomes assessed as unchanged parent compound remaining at 10 uM incubated for 60 mins in presence of [13C2,15N-glycine]GSH by LC-MS/MS analysis; type: ADME, Canis lupus familiaris, Microsome; conditions: read-out: Stabilty
Androgen receptor [10] = target: T1, Androgen receptor (Homo sapiens, UniProt P10275); type: tissue-based, LNCaP
T1 sequence (P10275 whole entry): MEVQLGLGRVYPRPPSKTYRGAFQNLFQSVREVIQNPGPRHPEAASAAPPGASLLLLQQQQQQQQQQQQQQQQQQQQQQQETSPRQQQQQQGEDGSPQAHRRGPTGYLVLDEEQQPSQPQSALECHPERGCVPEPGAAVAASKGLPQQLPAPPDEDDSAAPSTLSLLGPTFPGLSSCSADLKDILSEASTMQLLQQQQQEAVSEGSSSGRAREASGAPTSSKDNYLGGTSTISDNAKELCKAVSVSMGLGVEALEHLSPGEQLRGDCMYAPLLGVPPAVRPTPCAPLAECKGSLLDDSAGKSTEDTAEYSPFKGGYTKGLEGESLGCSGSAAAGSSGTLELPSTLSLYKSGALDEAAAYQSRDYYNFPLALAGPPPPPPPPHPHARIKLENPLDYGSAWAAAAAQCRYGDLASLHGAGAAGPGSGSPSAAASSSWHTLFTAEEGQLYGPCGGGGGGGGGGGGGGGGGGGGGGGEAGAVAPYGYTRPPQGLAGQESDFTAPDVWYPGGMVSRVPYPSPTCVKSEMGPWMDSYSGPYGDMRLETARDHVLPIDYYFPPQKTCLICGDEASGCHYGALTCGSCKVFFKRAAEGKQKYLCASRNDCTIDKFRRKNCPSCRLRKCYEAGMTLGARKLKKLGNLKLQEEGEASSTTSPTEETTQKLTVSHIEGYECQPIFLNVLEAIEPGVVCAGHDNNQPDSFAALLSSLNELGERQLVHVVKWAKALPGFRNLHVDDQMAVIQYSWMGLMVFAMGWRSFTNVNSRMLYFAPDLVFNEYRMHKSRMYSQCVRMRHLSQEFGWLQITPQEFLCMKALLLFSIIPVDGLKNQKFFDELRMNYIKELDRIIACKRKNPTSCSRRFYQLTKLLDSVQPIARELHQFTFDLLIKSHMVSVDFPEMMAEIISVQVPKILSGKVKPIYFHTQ
Description: Antagonist activity at wild type androgen receptor in castration-resistant human LNCaP cells assessed as inhibition of R1881-stimulated receptor transcriptional activation measured after 20 to 24 hrs by Steady-Glo luciferase assay

Androgen receptor [11] = target: Androgen receptor (Homo sapiens, UniProt P10275, F877L); experiment: Antagonist activity at AR F877L mutant (unknown origin) transfected in human LNCAP cells assessed as inhibition of R1881-stimulated receptor transcriptional activation measured after 20 to 24 hrs by Steady-Glo luciferase assay; type: cell-based
Androgen receptor (Homo sapiens, UniProt P10275, F877L), sequence (P10275 whole entry F877L): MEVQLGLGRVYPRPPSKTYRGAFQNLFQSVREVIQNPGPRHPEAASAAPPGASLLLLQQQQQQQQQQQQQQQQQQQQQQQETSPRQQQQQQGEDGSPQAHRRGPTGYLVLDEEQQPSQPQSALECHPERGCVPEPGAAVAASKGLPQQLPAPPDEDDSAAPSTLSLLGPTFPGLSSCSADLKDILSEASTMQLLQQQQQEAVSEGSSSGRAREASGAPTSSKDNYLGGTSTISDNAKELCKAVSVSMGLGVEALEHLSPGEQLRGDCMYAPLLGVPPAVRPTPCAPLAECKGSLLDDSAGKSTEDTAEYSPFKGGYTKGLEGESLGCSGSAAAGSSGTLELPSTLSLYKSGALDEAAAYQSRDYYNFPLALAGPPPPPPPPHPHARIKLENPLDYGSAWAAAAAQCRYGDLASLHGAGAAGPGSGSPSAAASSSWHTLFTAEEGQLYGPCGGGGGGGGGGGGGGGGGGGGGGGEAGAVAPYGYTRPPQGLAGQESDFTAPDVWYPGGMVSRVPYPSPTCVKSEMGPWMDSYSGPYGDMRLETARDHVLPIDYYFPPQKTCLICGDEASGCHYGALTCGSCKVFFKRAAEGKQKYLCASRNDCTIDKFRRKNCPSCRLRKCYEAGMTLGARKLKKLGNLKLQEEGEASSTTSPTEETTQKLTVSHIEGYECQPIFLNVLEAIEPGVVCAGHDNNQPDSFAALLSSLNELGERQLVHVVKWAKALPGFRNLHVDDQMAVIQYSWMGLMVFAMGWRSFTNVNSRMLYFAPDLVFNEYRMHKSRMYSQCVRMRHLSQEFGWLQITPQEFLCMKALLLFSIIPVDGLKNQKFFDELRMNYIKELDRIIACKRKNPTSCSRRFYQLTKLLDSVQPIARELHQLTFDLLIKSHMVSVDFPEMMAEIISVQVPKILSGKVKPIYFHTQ

SMILES	half-life [1] [min]	half-life [2] [min]	bioavailability [3] [%]	clearance [4] [mL/min/kg]	Cmax [5] [µM]	AUC(0-inf) [6] [ng·h/mL]	Vd [7] [L/kg]	remaining at 1 h, 10 µM [8] [%]	remaining at 1 h, 10 µM [9] [%]	IC50 (Androgen receptor [10]) [µM]	IC50 (Androgen receptor [11]) [µM]
CNC(=O)c1cc2c(cc1F)CC1(C2)C(=O)N(c2ccc(C#N)c(C(F)(F)F)c2)C(=S)N1C(C)C (stereo not given)	888	> 180	102	1.6	8.85	107000	1.7	–	–	–	–
CN1C(=S)N(c2cnc(C#N)c(C(F)(F)F)c2)C(=O)C12Cc1ccc(OC3CCNCC3)cc1C2 (stereo not given)	1000	> 180	97	11.5	0.92	15200	16.3	98.4	100	–	–
CNC(=O)c1cc2c(cc1F)CC1(C2)C(=O)N(c2cnc(C#N)c(C(F)(F)F)c2)C(=S)N1C(C)C (stereo not given)	1170	> 180	61	3.4	3.69	27000	4.8	–	–	–	–
CNC(=O)c1ccc2c(c1)CC1(C2)C(=O)N(c2ccc(C#N)c(C(F)(F)F)c2)C(=O)N1C (stereo not given)	–	–	–	–	–	–	–	–	–	> 30	1.66
CNC(=O)c1cc2c(cc1F)C[C@@]1(C2)C(=O)N(c2ccc(C#N)c(C(F)(F)F)c2)C(=S)N1C(C)C	312	> 180	91	3	5.81	50400	1.8	–	–	–	–
CN1C(=S)N(c2cnc(C#N)c(C(F)(F)F)c2)C(=O)C12Cc1ccc(O)cc1C2 (stereo not given)	–	–	–	–	–	–	–	52.3	100	–	–
N#Cc1ncc(N2C(=O)C3(CCC3)N(c3ccc(O)cc3)C2=S)cc1C(F)(F)F	–	–	–	–	–	–	–	78.7	–	–	–
CNC(=O)c1cc2c(cc1F)C[C@]1(C2)C(=O)N(c2ccc(C#N)c(C(F)(F)F)c2)C(=S)N1C(C)C	618	> 180	63	0.9	5.86	104000	1.7	–	–	–	–
CNC(=O)c1ccc2c(c1)CC1(C2)NC(=S)N(c2cnc(C#N)c(C(F)(F)F)c2)C1=O (stereo not given)	–	–	–	–	–	–	–	–	–	> 15	> 15
CNC(=O)c1cc2c(cc1F)C[C@@]1(C2)C(=O)N(c2cnc(C#N)c(C(F)(F)F)c2)C(=S)N1C(C)C	414	118	92	4	3.7	39100	2.3	–	–	–	–
CNC(=O)c1ccc2c(c1)CC1(C2)NC(=S)N(c2ccc(C#N)c(C(F)(F)F)c2)C1=O (stereo not given)	–	–	–	–	–	–	–	–	–	11.2	5.01
CNC(=O)c1cc2c(cc1F)C[C@]1(C2)C(=O)N(c2cnc(C#N)c(C(F)(F)F)c2)C(=S)N1C(C)C	948	135	80	1.3	6.1	99400	1.9	–	–	–	–
